Experimental data reported in doi:10.1101/2021.10.07.463234v2 (biorxiv, 2021).
Structures can show the parent of a compound that is named as a salt.

Molecular target: SARS-CoV-2 Mac1 (Severe acute respiratory syndrome coronavirus 2, UniProt P0DTD1)
Assay: biochemical
Conditions: 100 µM; inhibitor

Question: How did the “%inhibition” value turn out when `COc1ccc(C(CN(C)C)C2(O)CCCCC2)cc1` (stereo not shown) [Venlafaxine HCl] was run?
Answer: 0%

Question: With `Nc1ncnc2c1ncn2[C@@H]1O[C@H](CO)[C@@H](O)[C@@H]1O` [Vidarabine] as the molecule, how does the “%inhibition” value read?
Answer: 17.83%

Question: With `O=C1O[C@H]([C@@H](O)CO)C(O)=C1O` [Vitamin C] as the molecule, how does the “%inhibition” value read?
Answer: 15.62%

Question: With `Cc1ccc(Sc2ccccc2N2CCNCC2)c(C)c1` [Vortioxetine (Lu AA21004) HBr] as the molecule, how does the “%inhibition” value read?
Answer: 12.23%

Question: For `Cc1ccc(Sc2ccccc2N2CCNCC2)c(C)c1` [Vortioxetine], which “%inhibition” value is on record?
Answer: 4.926%

Question: Which “%inhibition” value does the source give for `Cc1cn([C@H]2C[C@H](N=[N+]=[N-])[C@@H](CO)O2)c(=O)[nH]c1=O` [Zidovudine] here?
Answer: 8.703%

Question: With `CCN1CCN(Cc2ccc(Nc3ncc(F)c(-c4cc(F)c5nc(C)n(C(C)C)c5c4)n3)nc2)CC1` [abemaciclib (LY2835219)] as the molecule, how does the “%inhibition” value read?
Answer: 4.001%

Same assay, conditions: read-out: %inhibition

Question: `c1cnc2cc3c(cc2n1)[C@@H]1CNC[C@H]3C1` [Varenicline Tartrate] was tested. Which inhibition at 100 µM did it give?
Answer: 0%

Question: How did the inhibition at 100 µM turn out when `C[C@@H]1COC(Nc2ccc3ncnc(Nc4ccc(OCc5nccs5)c(Cl)c4)c3c2)=N1` [Varlitinib] was run?
Answer: 0%

Question: For `Clc1ccc(Nc2nnc(Cc3ccncc3)c3ccccc23)cc1` [Vatalanib (PTK787) 2HCl], which inhibition at 100 µM is on record?
Answer: 0%

Question: For `CC(=O)O[C@H]1C[C@@H]2CC[C@@H]3[C@H](CC[C@@]4(C)[C@H]3C[C@H]([N+]3(C)CCCCC3)[C@@H]4OC(C)=O)[C@@]2(C)C[C@@H]1N1CCCCC1` [Vecuronium Bromide], which inhibition at 100 µM is on record?
Answer: 0%

Question: How did the inhibition at 100 µM turn out when `C[C@]1(c2nc3c(C(N)=O)cccc3[nH]2)CCCN1` [Veliparib (ABT-888)] was run?
Answer: 54.3%

Question: With `COC[C@H]1C[C@@H](c2nc(-c3ccc4c(c3)COc3cc5c(ccc6nc([C@@H]7CC[C@H](C)N7C(=O)[C@@H](NC(=O)OC)C(C)C)[nH]c65)cc3-4)c[nH]2)N(C(=O)[C@H](NC(=O)OC)c2ccccc2)C1` [Velpatasvir] as the molecule, how does the inhibition at 100 µM read?
Answer: 3.54%

Question: With `CCCS(=O)(=O)Nc1ccc(F)c(C(=O)c2c[nH]c3ncc(-c4ccc(Cl)cc4)cc23)c1F` [Vemurafenib (PLX4032, RG7204)] as the molecule, how does the inhibition at 100 µM read?
Answer: 2.37%

Question: With `Nc1ncnc2c1ncn2[C@@H]1O[C@H](CO)[C@@H](O)[C@@H]1O` [Vidarabine monohydrate] as the molecule, how does the inhibition at 100 µM read?
Answer: 9.49%

Question: `COc1cccc(-c2ccc(NC(=O)C3=C(C(=O)O)CCC3)c(F)c2)c1` [Vidofludimus] was tested. Which inhibition at 100 µM did it give?
Answer: 19.8%

Question: How did the inhibition at 100 µM turn out when `N#Cc1ccc2[nH]cc(CCCCN3CCN(c4ccc5oc(C(N)=O)cc5c4)CC3)c2c1` [Vilazodone HCl] was run?
Answer: 9.5%

Question: With `N#C[C@@H]1CCCN1C(=O)CNC12CC3CC(CC(O)(C3)C1)C2` [Vildagliptin (LAF-237)] as the molecule, how does the inhibition at 100 µM read?
Answer: 11.7%

Question: `CC[C@]1(O)C[C@@H]2CN(CCc3c([nH]c4ccccc34)[C@@](C(=O)OC)(c3cc4c(cc3OC)N(C)[C@H]3[C@@](O)(C(=O)OC)[C@H](OC(C)=O)[C@]5(CC)C=CCN6CC[C@]43[C@@H]65)C2)C1` [Vinblastine sulfate] was tested. Which inhibition at 100 µM did it give?
Answer: 1.94%

Question: How did the inhibition at 100 µM turn out when `CC[C@]12CCCN3CCc4c(n(c5ccccc45)[C@@](O)(C(=O)OC)C1)[C@@H]32` [Vincamine] was run?
Answer: 13.7%

Question: `CC[C@]1(O)C[C@H]2CN(CCc3c([nH]c4ccccc34)[C@@](C(=O)OC)(c3cc4c(cc3OC)N(C=O)[C@H]3[C@@](O)(C(=O)OC)[C@H](OC(C)=O)[C@]5(CC)C=CCN6CC[C@]43[C@@H]65)C2)C1` [Vincristine sulfate] was tested. Which inhibition at 100 µM did it give?
Answer: 42.2%

Question: Which inhibition at 100 µM does the source give for `CCOC(=O)C1=C[C@]2(CC)CCCN3CCc4c(n1c1ccccc41)[C@@H]32` [Vinpocetine] here?
Answer: 1.15%

Question: Which inhibition at 100 µM does the source give for `CS(=O)(=O)c1ccc(C(=O)Nc2ccc(Cl)c(-c3ccccn3)c2)c(Cl)c1` [Vismodegib (GDC-0449)] here?
Answer: 0%

Question: `CC(=O)OC/C=C(C)/C=C/C=C(C)/C=C/C1=C(C)CCCC1(C)C` [Vitamin A Acetate] was tested. Which inhibition at 100 µM did it give?
Answer: 4.44%

Question: Which inhibition at 100 µM does the source give for `CC1=C(/C=C/C(C)=C/C=C/C(C)=C/CO)C(C)(C)CCC1` [Vitamin A] here?
Answer: 2.61%

Question: With `C=C1CC[C@H](O)C/C1=C/C=C1\CCC[C@]2(C)[C@@H]([C@H](C)/C=C/[C@H](C)C(C)C)CC[C@@H]12` [Vitamin D2] as the molecule, how does the inhibition at 100 µM read?
Answer: 0%

Question: `CC(=O)Oc1c(C)c(C)c2c(c1C)CCC(C)(CCC[C@H](C)CCC[C@H](C)CCCC(C)C)O2` (stereo partly shown) [Vitamin E Acetate] was tested. Which inhibition at 100 µM did it give?
Answer: 0%

Question: For `CC1=C(C/C=C(\C)CCC[C@H](C)CCC[C@H](C)CCCC(C)C)C(=O)c2ccccc2C1=O` [Vitamin K1], which inhibition at 100 µM is on record?
Answer: 19.5%

Question: With `OCC(CO)N[C@H]1C[C@](O)(CO)[C@@H](O)[C@H](O)[C@H]1O` [Voglibose] as the molecule, how does the inhibition at 100 µM read?
Answer: 7.63%

Question: How did the inhibition at 100 µM turn out when `CC[C@@H]1C(=O)N(C)c2cnc(Nc3ccc(C(=O)N[C@H]4CC[C@H](N5CCN(CC6CC6)CC5)CC4)cc3OC)nc2N1C(C)C` [Volasertib (BI 6727)] was run?
Answer: 0%

Question: How did the inhibition at 100 µM turn out when `CNCc1cc(-c2ccccc2F)n(S(=O)(=O)c2cccnc2)c1` [Vonoprazan Fumarate (TAK-438)] was run?
Answer: 0%

Question: With `CCOC(=O)N[C@@H]1CC[C@@H]2[C@@H](C1)C[C@H]1C(=O)O[C@H](C)[C@H]1[C@H]2/C=C/c1ccc(-c2cccc(F)c2)cn1` [Vorapaxar] as the molecule, how does the inhibition at 100 µM read?
Answer: 0%

Question: `C[C@@H](c1ncncc1F)[C@](O)(Cn1cncn1)c1ccc(F)cc1F` [Voriconazole] was tested. Which inhibition at 100 µM did it give?
Answer: 0%

Question: How did the inhibition at 100 µM turn out when `O=C(CCCCCCC(=O)Nc1ccccc1)NO` [Vorinostat (SAHA, MK0683)] was run?
Answer: 0%

Question: For `Cc1cccc(C)c1NC1=NCCCS1` [Xylazine HCl], which inhibition at 100 µM is on record?
Answer: 25.3%

Question: Which inhibition at 100 µM does the source give for `OC[C@@H](O)[C@H](O)[C@@H](O)CO` [Xylitol] here?
Answer: 0%

Question: How did the inhibition at 100 µM turn out when `Cc1cc(C(C)(C)C)cc(C)c1CC1=NCCN1` [Xylometazoline HCl] was run?
Answer: 9.99%

Question: Which inhibition at 100 µM does the source give for `O=C[C@H](O)[C@@H](O)[C@H](O)CO` [Xylose] here?
Answer: 0%

Question: `COCC[n+]1c2c(n(Cc3cnccn3)c1C)C(=O)c1ccccc1C2=O` [YM155 (Sepantronium Bromide)] was tested. Which inhibition at 100 µM did it give?
Answer: 0%

Question: `COC(=O)[C@@H]1[C@H]2C[C@H]3c4[nH]c5ccccc5c4CCN3C[C@@H]2CC[C@@H]1O` [Yohimbine HCl] was tested. Which inhibition at 100 µM did it give?
Answer: 0%

Question: `COc1cc(C(=O)NS(=O)(=O)c2ccccc2C)ccc1Cc1cn(C)c2ccc(NC(=O)OC3CCCC3)cc12` [Zafirlukast] was tested. Which inhibition at 100 µM did it give?
Answer: 0%

Question: How did the inhibition at 100 µM turn out when `Nc1ccn([C@H]2CC[C@@H](CO)O2)c(=O)n1` [Zalcitabine] was run?
Answer: 19.2%

Question: With `CC(C(=O)O)c1ccc2c(c1)CC(=O)c1ccccc1S2` (stereo not shown) [Zaltoprofen] as the molecule, how does the inhibition at 100 µM read?
Answer: 16.4%

Question: Which inhibition at 100 µM does the source give for `CC(=O)N[C@H]1[C@H]([C@H](O)[C@H](O)CO)OC(C(=O)O)=C[C@@H]1NC(=N)N` [Zanamivir] here?
Answer: 0%

Question: For `COc1nc(C)cnc1NS(=O)(=O)c1cccnc1-c1ccc(-c2nnco2)cc1` [Zibotentan (ZD4054)], which inhibition at 100 µM is on record?
Answer: 7.65%

Question: With `CC(c1cc2ccccc2s1)N(O)C(N)=O` (stereo not shown) [Zileuton] as the molecule, how does the inhibition at 100 µM read?
Answer: 0%

Question: Which inhibition at 100 µM does the source give for `O=C1Cc2cc(CCN3CCN(c4nsc5ccccc45)CC3)c(Cl)cc2N1` [Ziprasidone HCl] here?
Answer: 0%

Question: How did the inhibition at 100 µM turn out when `C[C@H](CSC(=O)c1ccccc1)C(=O)N1C[C@@H](Sc2ccccc2)C[C@H]1C(=O)O` [Zofenopril calcium] was run?
Answer: 10.7%

Question: How did the inhibition at 100 µM turn out when `CN(C)CCc1c[nH]c2ccc(C[C@H]3COC(=O)N3)cc12` [Zolmitriptan] was run?
Answer: 0%

Question: With `NS(=O)(=O)Cc1noc2ccccc12` [Zonisamide] as the molecule, how does the inhibition at 100 µM read?
Answer: 0%

Question: Which inhibition at 100 µM does the source give for `O[C@@H](COc1cccc2ncccc12)CN1CCN(C2c3ccccc3[C@@H]3[C@H](c4ccccc42)C3(F)F)CC1` (stereo partly shown) [Zosuquidar (LY335979) 3HCl] here?
Answer: 0%

Question: With `O[C@H]1[C@H](O)[C@@H](O)[C@H](O)[C@@H](O)[C@H]1O` [i-Inositol] as the molecule, how does the inhibition at 100 µM read?
Answer: 0%
